From patent US20100317698A1, “Polysubstituted Pyridinylaminoalkylene- and Pyridinyloxyalkylene-Cyclopropanamine Compounds, a Process for Their Preparation and Pharmaceutical Compositions Containing Them” (LES LABORATOIRES SERVIER, priority 2006, published 2010)

Tests used:
[1] = test system: cortical release of acetylcholine; experiment: In vivo measurement of the release of acetylcholine by intra-cortical microdialysis in the conscious Wistar rat; details: 10 mg/kg IP, median prefrontal cortex
Method: The systemic administration of nicotine and nicotinic agonists causes an increase, in vivo, of acetylcholine in various regions of the brain (Neurochem. Res., 1996, 21, 1181-1186; Eur. J. Pharmacol., 1998, 351, 181-188; Br. J. Pharmacol., 1999, 127, 1486-1494). A microdialysis probe is implanted in the median prefrontal cortex of male Wistar rats. Six or seven days after they have been implanted, the probes are perfused with Ringer's solution (NaCl 147 mM, KCl 2.7 mM, CaCl2 1.2 mM, MgCl2 1 mM, neostigmine 20 nM) at a flow rate of 1 μl/min, the animal being free to move. After 2 hours in the animal quarters, the product under test is administered by the intraperitoneal route. A group of control animals receives the solvent used for the product. The dialysates (30 μl) are then collected every 30 minutes for 4 hours in order to measure the extra-synaptic cortical concentrations of acetylcholine by means of HPLC with amperometric detection. The results are expressed in pg of acetylcholine/dialysate, and inter-group comparisons are carried out by means of variance analysis, using 2 factors (treatment×time), with measurements being repeated over time.

NMRI mouse = experiment: Abdominal contractions induced by phenyl-p-benzoquinone (PBQ) in the NMRI mouse; assay type: in vivo; details: 10 mg/kg IP
Method: Intraperitoneal administration of an alcoholic solution of PBQ causes abdominal cramps in the mouse (Proc. Soc. Exp. Biol., 1957, 95, 729-731). The cramps are characterised by repeated contractions of the abdominal musculature, accompanied by extension of the hind limbs. Most analgesics antagonise these abdominal cramps (Brit. J. Pharmacol. Chem., 1968, 32, 295-310). At t=0 min., the animals are weighed and the compound being studied is administered by the IP route. A group of control animals is given the solvent used for the compound. At t=30 min., an alcoholic solution of PBQ (0.2%) is administered by the IP route in a volume of 0.25 ml/mouse. Immediately after administration of the PBQ, the animals are placed in cylinders of plexiglass (L=19.5 cm; I.D.=5 cm). From t=35 min. to t=45 min., the animals' reaction is observed and the experimenter notes the total number of abdominal cramps per animal. The results are expressed as the percentage inhibition of the number of abdominal cramps measured in the control animals at the active dose of the compound studied.

[2] = biological target: T1, type α4β2 central nicotinic receptors (Rattus norvegicus, UniProt P09483+P12390); experiment: Displacement of binding of [3H]-cytisine to type α4β2 nicotinic receptors of rat brain; details: rat brain membranes, read-out: Affinity (Ki, nM) for type α4β2 receptors
T1 construct: from tissue; host or cells: rat brain membranes
Method: This study, carried out according to the technique described in Molec. Pharmacol., 1990, 39; 9-12, is aimed at determining the affinity of compounds of the present invention for type […] central nicotinic receptors.
Membranes (250 μg/ml) of rat brain are incubated (2 hours, 20° C.) in the presence of a series of concentrations (0.01-10 μM) of each compound of the present invention (diluted starting from a 10 mM stock solution in DMSO) and [^3H]-cytisine (S.A.: 1184 GBq/mmol: 2 nM) in phosphate buffer (NaH2PO4 20 mM, pH 7.4); final volume: 250 μl. The non-specific binding is determined by incubating membranes in the presence of 10 μM of (−)nicotine. The affinity of the compounds of the present invention for type α4β2 central nicotinic receptors is characterised by determination of the Ki.

T1 sequence (P09483 31-630): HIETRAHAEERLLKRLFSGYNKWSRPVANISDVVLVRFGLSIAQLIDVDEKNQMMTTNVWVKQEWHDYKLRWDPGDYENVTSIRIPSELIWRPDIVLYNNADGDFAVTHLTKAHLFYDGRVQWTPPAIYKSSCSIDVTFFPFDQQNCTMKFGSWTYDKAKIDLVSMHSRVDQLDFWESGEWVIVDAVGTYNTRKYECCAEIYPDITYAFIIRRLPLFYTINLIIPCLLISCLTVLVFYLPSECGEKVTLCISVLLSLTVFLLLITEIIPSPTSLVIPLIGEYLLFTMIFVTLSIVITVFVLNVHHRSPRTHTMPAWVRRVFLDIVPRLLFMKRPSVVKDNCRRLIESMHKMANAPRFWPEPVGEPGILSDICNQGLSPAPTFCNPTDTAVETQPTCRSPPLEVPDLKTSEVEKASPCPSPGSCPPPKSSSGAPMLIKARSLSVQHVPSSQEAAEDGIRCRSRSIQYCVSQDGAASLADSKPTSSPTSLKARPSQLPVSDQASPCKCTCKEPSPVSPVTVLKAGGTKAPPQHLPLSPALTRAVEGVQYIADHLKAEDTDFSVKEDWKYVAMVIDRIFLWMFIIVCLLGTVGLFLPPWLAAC
T1 sequence (P12390 25-500): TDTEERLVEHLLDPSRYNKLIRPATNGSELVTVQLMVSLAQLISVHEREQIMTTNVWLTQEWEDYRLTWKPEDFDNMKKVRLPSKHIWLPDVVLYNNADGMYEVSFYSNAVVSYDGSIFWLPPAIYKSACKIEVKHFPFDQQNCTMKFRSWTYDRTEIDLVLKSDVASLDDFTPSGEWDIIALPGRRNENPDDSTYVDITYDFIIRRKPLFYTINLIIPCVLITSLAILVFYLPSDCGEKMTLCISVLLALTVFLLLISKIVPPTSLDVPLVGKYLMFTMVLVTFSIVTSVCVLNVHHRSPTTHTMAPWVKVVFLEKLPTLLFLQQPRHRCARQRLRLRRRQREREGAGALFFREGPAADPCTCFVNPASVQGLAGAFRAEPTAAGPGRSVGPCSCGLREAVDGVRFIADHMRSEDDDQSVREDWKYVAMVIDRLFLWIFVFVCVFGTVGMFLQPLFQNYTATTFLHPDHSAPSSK

melting point [°C] | Compound | increase of the release of acetylcholine [1] | inhibition of the number of abdominal cramps versus control animals (NMRI mouse) [%] | Ki [2] [nM]
130 to 138 | CNC1(COc2cnc(C)c(-c3ccncc3)c2)CC1.Cl.Cl.Cl [Example 81, Methyl(1-{[(2-methyl-3,4′-bipyridin-5-yl)oxy]methyl}cyclopropyl)amine trihydrochloride] | – | −90 | –
100 to 110 | CNC1(CNc2cnc(Cl)c(-c3ccncc3)c2)CC1.Cl.Cl [Example 106, 2-Chloro-N-{[1-(methylamino)cyclopropyl]methyl}-3,4′-bipyridin-5-amine dihydrochloride] | – | −87 | –
– | [1-({[5-(3-Methoxyphenyl)pyridin-3-yl]oxy}methyl)cyclopropyl]methylamine dihydrochloride [Example 1] | +72% | – | 7.9

Compound | melting point [°C] | increase of the release of acetylcholine [1] | inhibition of the number of abdominal cramps versus control animals (NMRI mouse) [%] | Ki [2] [nM]
CNC1(COc2cnc(Cl)c(-c3ccc(C#N)cc3)c2)CC1.Cl [Example 18, 4-(2-Chloro-5-{[1-(methylamino)cyclopropyl]methoxy}pyridin-3-yl)benzonitrile hydrochloride] | 215 to 220 | +104% | – | –
